Laboratory results from patent publication US20160100574A1, “Antimicrobial Compositions Comprising Glyceryl Ethers” (SYMRISE AG, priority 2013, published 2016).

Experiments:
Type in all cases: cell-based
[1] = tested on: C. albicans; assay: Challenge test of preserved emulsion, C. albicans; conditions: for colony counts Day 7: Day 7, 1% b.w. active in aqueous emulsion of Glyceryl stearyl citrate (Dracorin CE); for colony counts Day 14: Day 14, 1% b.w. active in aqueous emulsion of Glyceryl stearyl citrate (Dracorin CE); for colony counts Day 28: Day 28, 1% b.w. active in aqueous emulsion of Glyceryl stearyl citrate (Dracorin CE)
Description: (§1) 1% b.w. of heptylglycerin, benzylglycerin and phenylpropylglycerin, respectively was added to an aqueous emulsion of Glyceryl stearyl citrate (Dracorin CE). The formulations were tested in standard challenge tests against various micro-organisms. The results are shown in Table 1 and indicate the high activity of the actives against yeast and bacteria, but not against mould.

[2] = tested on: E. coli; assay: Challenge test of preserved emulsion, E. coli; conditions: for colony counts Day 2: Day 2, 1% b.w. active in aqueous emulsion of Glyceryl stearyl citrate (Dracorin CE); for colony counts Day 7: Day 7, 1% b.w. active in aqueous emulsion of Glyceryl stearyl citrate (Dracorin CE); for colony counts Day 14: Day 14, 1% b.w. active in aqueous emulsion of Glyceryl stearyl citrate (Dracorin CE); for colony counts Day 28: Day 28, 1% b.w. active in aqueous emulsion of Glyceryl stearyl citrate (Dracorin CE)
Description: as §1

[3] = tested on: P. aeruginosa; assay: Challenge test of preserved emulsion, P. aeruginosa; conditions: for colony counts Day 2: Day 2, 1% b.w. active in aqueous emulsion of Glyceryl stearyl citrate (Dracorin CE); for colony counts Day 7: Day 7, 1% b.w. active in aqueous emulsion of Glyceryl stearyl citrate (Dracorin CE); for colony counts Day 14: Day 14, 1% b.w. active in aqueous emulsion of Glyceryl stearyl citrate (Dracorin CE); for colony counts Day 28: Day 28, 1% b.w. active in aqueous emulsion of Glyceryl stearyl citrate (Dracorin CE)
Description: as §1

[4] = tested on: S. aureus; assay: Challenge test of preserved emulsion, S. aureus; conditions: for colony counts Day 2: Day 2, 1% b.w. active in aqueous emulsion of Glyceryl stearyl citrate (Dracorin CE); for colony counts Day 7: Day 7, 1% b.w. active in aqueous emulsion of Glyceryl stearyl citrate (Dracorin CE); for colony counts Day 14: Day 14, 1% b.w. active in aqueous emulsion of Glyceryl stearyl citrate (Dracorin CE); for colony counts Day 28: Day 28, 1% b.w. active in aqueous emulsion of Glyceryl stearyl citrate (Dracorin CE)
Description: as §1

[5] = tested on: A. brasiliensis; assay: Challenge test / synergy (Kull equation), A. brasiliensis; conditions: for colony counts Day 2: Day 2, 1% b.w. active in aqueous emulsion of Glyceryl stearyl citrate (Dracorin CE); for colony counts Day 14: Day 14, 1% b.w. active in aqueous emulsion of Glyceryl stearyl citrate (Dracorin CE); for colony counts Day 28: Day 28, 1% b.w. active in aqueous emulsion of Glyceryl stearyl citrate (Dracorin CE)
Description: 1% b.w. of heptylglycerin, benzylglycerin and phenylpropylglycerin, respectively was added to an aqueous emulsion of Glyceryl stearyl citrate (Dracorin CE). The formulations were tested in standard challenge tests against various micro-organisms.
To calculate the synergism between compounds of formula (I) and other antimicrobial actives, the Kull equation^1 2 was used
SI=(Cmixture×PA)/CA+(Cmixture×PB)/CB (I)
where SI is the Synergy Index according to Kull^1), 2) CA is the cell count for substance A CB is the cell count for substance B Cmixture is the cell count for the mixture of substances A and B PA is the proportion of the substance A in the mixture PB is the proportion of the substance B in the mixture. ^1 Kull, F. C., Eismann, P. C., Sylvestrowicz, H. D., and R. L. Mayer (1961). Mixtures of Quaternary Ammonium Compounds and Long-chain Fatty Acids as Antifungal Agents. Applied Microbiology 9, 538-541.^2 Steinberg, D.C. (2000). Measuring Synergy. Cosmetics & Toiletries 115 (11), 59-62.
Colony counts of <100 were arbitrarily set to 100, in order to allow for synergy calculations with the above equation. The abbreviation “n.a.” means not applicable.

[6] = tested on: Staphylococcus aureus; assay: Minimum inhibitory concentration according to DIN 58940, Staphylococcus aureus; conditions: Staphylococcus aureus, single antimicrobial agents
Source text: (§2) In order to calculate the Synergy Index SI with MIC values, the Kull equation is used as follows:
(§3) SI=(MICmixture×PA)/MICA+(MICmixture×PB)/MICB (II)
(§4) where SI is the Synergy Index according to Kull^1), 2) MICA is the MIC value for substance A MICB is the MIC value for substance B MICmixture is the MIC value for the mixture of substances A and B PA is the proportion of the substance A in the mixture PB is the proportion of the substance B in the mixture. b) Mixtures containing 3 components
(§5) SI=(MICmixture×PA)/MICA+(MICmixture×PB)/MICB+(MICmixture×PC)/MICC
(§6) where SI is the Synergy Index according to Kull^1), 2) MICA is the MIC value for substance A MICB is the MIC value for substance B MICC is the MIC value for substance C MICmixture is the MIC value for the mixture of substances […] PA is the proportion of the substance A in the mixture PB is the proportion of the substance B in the mixture. PC is the proportion of the substance C in the mixture.

[7] = tested on: Candida albicans; assay: Minimum inhibitory concentration according to DIN 58940, Candida albicans; conditions: Candida albicans, single antimicrobial agents
Source text: as §2, §3, §4, §5, §6

[8] = tested on: Aspergillus brasiliensis; assay: Minimum inhibitory concentration according to DIN 58940, Aspergillus brasiliensis; conditions: Aspergillus brasiliensis, single antimicrobial agents
Source text: as §2, §3, §4, §5, §6

[9] = tested on: Pseudomonas aeruginosa; assay: Minimum inhibitory concentration according to DIN 58940, Pseudomonas aeruginosa; conditions: Pseudomonas aeruginosa, single antimicrobial agents
Source text: as §2, §3, §4, §5, §6

[10] = tested on: Escherichia coli; assay: Minimum inhibitory concentration according to DIN 58940, Escherichia coli; conditions: Escherichia coli, single antimicrobial agents, read-out: MIC values E. coli
Source text: as §2, §3, §4, §5, §6

[11] = Day 0, 1% b.w. active in aqueous emulsion of Glyceryl stearyl citrate (Dracorin CE)

SMILES	colony counts Day 7 [1] [cfu/g formulation]	colony counts Day 14 [1] [cfu/g formulation]	colony counts Day 28 [1] [cfu/g formulation]	colony counts Day 2 [2] [cfu/g formulation]	colony counts Day 7 [2] [cfu/g formulation]	colony counts Day 14 [2] [cfu/g formulation]	colony counts Day 28 [2] [cfu/g formulation]	colony counts Day 2 [3] [cfu/g formulation]	colony counts Day 7 [3] [cfu/g formulation]	colony counts Day 14 [3] [cfu/g formulation]	colony counts Day 28 [3] [cfu/g formulation]	colony counts Day 2 [4] [cfu/g formulation]	colony counts Day 7 [4] [cfu/g formulation]	colony counts Day 14 [4] [cfu/g formulation]	colony counts Day 28 [4] [cfu/g formulation]	MIC [6] [µg/mL]	MIC [7] [µg/mL]	MIC [8] [µg/mL]	MIC [9] [µg/mL]	MIC [10] [µg/mL]	other results
CCCCCCCOCC(O)CO (stereo not drawn) [Heptylglycerin]	0	0	0	0	0	0	0	0	0	0	0	0	0	0	0	2500	2000	1000	5000	2000	colony counts Day 2 ([1]; Day 2, 1% b.w. active in aqueous emulsion of Glyceryl stearyl citrate (Dracorin CE)): <100 cfu/g formulation; colony counts Day 0 [2, 11]: 210.000 cfu/g formulation; colony counts Day 0 [3, 11]: 250.000 cfu/g formulation; colony counts Day 0 [4, 11]: 230.000 cfu/g formulation; colony counts Day 0 [5, 11]: 220.000 cfu/g formulation; colony counts Day 2 [5]: 320.000 cfu/g formulation; colony counts Day 14 [5]: 300.000 cfu/g formulation; colony counts Day 28 [5]: 170.000 cfu/g formulation; Colony counts day 0 ([5]; Table 3, day 0, 1.0% total active): 220.000 cfu/g formulation; Relative colony counts day 0 ([5]; Table 3, day 0, relative to day 0, 1.0% total active): 1.0000; Colony counts day 2 ([5]; Table 3, day 2, 1.0% total active): 320.000 cfu/g formulation; Relative colony counts day 2 ([5]; Table 3, day 2, relative to day 0, 1.0% total active): 1.4545; Colony counts day 7 ([5]; Table 3, day 7, 1.0% total active): 340.000 cfu/g formulation; Relative colony counts day 7 ([5]; Table 3, day 7, relative to day 0, 1.0% total active): 1.5455; Colony counts day 14 ([5]; Table 3, day 14, 1.0% total active): 300.000 cfu/g formulation; Relative colony counts day 14 ([5]; Table 3, day 14, relative to day 0, 1.0% total active): 1.3636; Colony counts day 28 ([5]; Table 3, day 28, 1.0% total active): 170.000 cfu/g formulation; Relative colony counts day 28 ([5]; Table 3, day 28, relative to day 0, <100 set to 100, 1.0% total active): 0.7727
CCCCCCOCC(O)CO (stereo not drawn) [Hexylglycerin]	–	–	–	–	–	–	–	–	–	–	–	–	–	–	–	6000	6000	4000	6000	4000	–
CCCCCCCCOCC(O)CO (stereo not drawn) [Octylglycerin]	–	–	–	–	–	–	–	–	–	–	–	–	–	–	–	1000	1000	500	> 2000	1000	–
OCC(O)COCCCc1ccccc1 (stereo not drawn) [Phenylpropylglycerin]	<10	<10	<10	<10	<10	<10	<10	<10	<10	<10	<10	<10	<10	<10	<10	–	–	–	–	–	colony counts Day 2 [5]: 500.000 cfu/g formulation; colony counts Day 14 [5]: 20.000 cfu/g formulation; colony counts Day 28 [5]: 5.900 cfu/g formulation
